Patent US6413542B1, “Direct pour-on antiparasitic skin solution and methods for treating, preventing and controlling myasis” (Merial, priority 1996, dated 2002)

Columns and labels:
Boophilus microplus [1] = assay: Example 2: efficacy of pour-on skin solutions against Boophilus microplus on artificially infested cattle (tick counts); format: in vivo; conditions: skin solution containing 1% compound A, 1 ml per 10 kg along the line of the back
Description: Study of the efficacy of skin solutions according to the invention containing, respectively, 0.25, 0.50 and 1% compound A to combat Boophilus microplus.
The study was performed on 16 young male castrated Herefords (weight ranging between 114 and 172 kg).
Three skin solutions according to Example 1 were prepared:
A placebo was prepared, which differed from the skin solutions according to the invention in that it contained no compound A.
In the studies, 1 ml of skin solution or of placebo were used per 10 kg of animal weight.
The dose volume was applied along the line of the animal's back, from the head to the base of the tail.
Between days-24 and -1, the animals were artificially infested on 11 occasions with 2,500 Boophilus microplus larvae. The aim of 24-day infestation is to ensure that all of the stages of Boophilus microplus are present on the animal (eggs, larvae, adults).
On day 0, the animals receive one of the skin solutions or the placebo.
Before the skin solutions or the placebo are applied, the number of ticks present on the various animals in the different groups are counted.
The blood-engorged female ticks which become detached are included in the count.

[2] = Solubility of compound A in the solvent acetyl tributyl citrate; format: physicochemical
Source text: The solvent will be used in proportion with the concentration of the compound I and its solubility in this solvent.
It will be sought to have the lowest possible volume.

Boophilus microplus [3] = assay: Example 4: efficacy over time of skin solutions on cattle re-infested with larvae for 13 weeks; format: in vivo; set-up: Efficacy index: scale not given here
Source text: Study of efficacy over time.
Skin solutions according to the invention containing 0.25, 0.5 or 1% compound A where used in this example.
The composition of these solutions is the same as for the above examples.
The cattle were preinfested so as to have all of the stages of Boophilus microplus present (infestation with 5,000 larvae, 22 days, 15 days and 8 days before application of the skin solution).
After application of the skin solutions, the cattle are again infested with the larvae for 13 weeks, to determine the efficacy of the three concentrations.

With `N#Cc1nn(-c2c(Cl)cc(C(F)(F)F)cc2Cl)c(N)c1[S+]([O-])C(F)(F)F` (stereo not drawn) [compound A, 1-[2,6-Cl2 4-CF3phenyl]3-CN 4-[SO-CF3]5-NH2pyrazole] as the molecule, how does the efficacy (Boophilus microplus [1]) read?
Its efficacy is 100%.

And the solubility [2]?
Its solubility is 4.3 % m/V.

What about the Efficacy index (Boophilus microplus [3]; 0.25% solution, week 1 of infestation after treatment) of the same molecule?
Its Efficacy index is 97.6.

What about the Efficacy index (Boophilus microplus [3]; 0.25% solution, week 2 of infestation after treatment) of the same molecule?
The Efficacy index was 98.8.

What about the Efficacy index (Boophilus microplus [3]; 0.25% solution, week 3 of infestation after treatment) of the same molecule?
The Efficacy index was 99.7.

And the Efficacy index (Boophilus microplus [3]; 0.25% solution, week 4 of infestation after treatment)?
Its Efficacy index is 99.3.

What about the Efficacy index (Boophilus microplus [3]; 0.25% solution, week 5 of infestation after treatment) of the same molecule?
Its Efficacy index is 96.7.

And the Efficacy index (Boophilus microplus [3]; 0.25% solution, week 6 of infestation after treatment)?
Its Efficacy index is 98.6.

And the Efficacy index (Boophilus microplus [3]; 0.25% solution, week 7 of infestation after treatment)?
The Efficacy index was 92.4.

And the Efficacy index (Boophilus microplus [3]; 0.25% solution, week 8 of infestation after treatment)?
Its Efficacy index is 85.8.

And the Efficacy index (Boophilus microplus [3]; 0.25% solution, week 9 of infestation after treatment)?
Its Efficacy index is 28.0.

What about the Efficacy index (Boophilus microplus [3]; 0.25% solution, week 10 of infestation after treatment) of the same molecule?
Its Efficacy index is 23.0.

What about the Efficacy index (Boophilus microplus [3]; 0.25% solution, week 11 of infestation after treatment) of the same molecule?
Its Efficacy index is 18.9.

What about the Efficacy index (Boophilus microplus [3]; 0.25% solution, week 12 of infestation after treatment) of the same molecule?
Its Efficacy index is 1.7.

What about the Efficacy index (Boophilus microplus [3]; 0.25% solution, week 13 of infestation after treatment) of the same molecule?
The Efficacy index was 8.4.

What about the Efficacy index (Boophilus microplus [3]; 0.5% solution, week 1 of infestation after treatment) of the same molecule?
Its Efficacy index is 100.

And the Efficacy index (Boophilus microplus [3]; 0.5% solution, week 2 of infestation after treatment)?
The Efficacy index was 100.

What about the Efficacy index (Boophilus microplus [3]; 0.5% solution, week 3 of infestation after treatment) of the same molecule?
The Efficacy index was 100.

And the Efficacy index (Boophilus microplus [3]; 0.5% solution, week 4 of infestation after treatment)?
Its Efficacy index is 100.

And the Efficacy index (Boophilus microplus [3]; 0.5% solution, week 5 of infestation after treatment)?
Its Efficacy index is 92.9.

What about the Efficacy index (Boophilus microplus [3]; 0.5% solution, week 6 of infestation after treatment) of the same molecule?
The Efficacy index was 93.2.

And the Efficacy index (Boophilus microplus [3]; 0.5% solution, week 7 of infestation after treatment)?
The Efficacy index was 88.6.

What about the Efficacy index (Boophilus microplus [3]; 0.5% solution, week 8 of infestation after treatment) of the same molecule?
The Efficacy index was 83.4.

And the Efficacy index (Boophilus microplus [3]; 0.5% solution, week 9 of infestation after treatment)?
Its Efficacy index is 37.9.

What about the Efficacy index (Boophilus microplus [3]; 0.5% solution, week 10 of infestation after treatment) of the same molecule?
The Efficacy index was 41.4.

What about the Efficacy index (Boophilus microplus [3]; 0.5% solution, week 11 of infestation after treatment) of the same molecule?
Its Efficacy index is 55.2.

What about the Efficacy index (Boophilus microplus [3]; 0.5% solution, week 12 of infestation after treatment) of the same molecule?
Its Efficacy index is 37.3.

What about the Efficacy index (Boophilus microplus [3]; 0.5% solution, week 13 of infestation after treatment) of the same molecule?
Its Efficacy index is 48.5.

And the Efficacy index (Boophilus microplus [3]; 1.0% solution, week 1 of infestation after treatment)?
The Efficacy index was 100.

What about the Efficacy index (Boophilus microplus [3]; 1.0% solution, week 2 of infestation after treatment) of the same molecule?
The Efficacy index was 100.

And the Efficacy index (Boophilus microplus [3]; 1.0% solution, week 3 of infestation after treatment)?
Its Efficacy index is 100.

And the Efficacy index (Boophilus microplus [3]; 1.0% solution, week 4 of infestation after treatment)?
The Efficacy index was 100.

And the Efficacy index (Boophilus microplus [3]; 1.0% solution, week 5 of infestation after treatment)?
Its Efficacy index is 100.

What about the Efficacy index (Boophilus microplus [3]; 1.0% solution, week 6 of infestation after treatment) of the same molecule?
The Efficacy index was 100.

What about the Efficacy index (Boophilus microplus [3]; 1.0% solution, week 7 of infestation after treatment) of the same molecule?
The Efficacy index was 99.7.

And the Efficacy index (Boophilus microplus [3]; 1.0% solution, week 8 of infestation after treatment)?
Its Efficacy index is 100.

And the Efficacy index (Boophilus microplus [3]; 1.0% solution, week 9 of infestation after treatment)?
Its Efficacy index is 79.8.

What about the Efficacy index (Boophilus microplus [3]; 1.0% solution, week 10 of infestation after treatment) of the same molecule?
Its Efficacy index is 65.3.

And the Efficacy index (Boophilus microplus [3]; 1.0% solution, week 11 of infestation after treatment)?
Its Efficacy index is 61.5.

And the Efficacy index (Boophilus microplus [3]; 1.0% solution, week 12 of infestation after treatment)?
Its Efficacy index is 32.2.

What about the Efficacy index (Boophilus microplus [3]; 1.0% solution, week 13 of infestation after treatment) of the same molecule?
The Efficacy index was 46.4.

And the “period of efficacy against Boophilus microplus” value (Boophilus microplus [3]; pour-on skin solutions, cattle)?
The value was “two”.
